Reference: patent US20040101477A1, “Individualization of therapy with anesthetics” (Xanthus Life Sciences, Inc., priority 2002, published 2004)
Where two headings read alike, the source gives them in different places. Marks after values point to notes of the source that are not given here.

Legend:
AAMU-Ab = assay: Competitive antigen ELISA, cross-reactivity of AAMU-Ab; format: binding, rabbit; details: 0 = absence of inhibition or inhibition no higher than 40% at 5 × 10^−3 M
Protocol: (§1) Buffers and water without additives are filtered through millipore filters and kept for 1 week. BSA, antibodies, Tween™ 20 and horse radish peroxidase conjugates are added to these buffers and water just prior to use. Urine samples are usually collected 4 hours after drinking a cup of coffee (instant or brewed with approximately 100 mg of caffeine per cup) and stored at 80° C. The urine samples are diluted 10 times with sodium phosphate buffer (620 mosm, pH 7.50) and are subsequently diluted with water to give concentrations of AAMU and 1× no higher than 3×10^−6 M in the ELISA. All the pipettings are done with an eight-channel pipette, except those of the antibody and sample solutions. Starting with the last well, 100 μL of a carbonate buffer (100 mM, pH 9.6) containing 2.5 μg mL-^1 antibodies are added to each well. After 90 min. at room temperature, the wells are washed three times with […] of TPB: isotonic sodium phosphate buffer (310 mosm, pH 7.50) containing 0.05% Tween™ 20.
(§2) After the initial wash, unoccupied sites are blocked by incubation for 90 min. at room temperature with 100 μL TBP containing 3% BSA. The wells are washed four times with 100 μL TPB. […] The microplate is gently shaken with an orbital shaker at room temperature for 3-4 hours. The wells are washed three times with 100 μL TPB containing 1% BSA and three times with water containing 0.05% Tween™ 20. To the washed plate is added 150 μL of a substrate buffer composed of citric acid (25 mM) and sodium phosphate dibasic buffer (50 mM, pH 5.0) containing 0.06% hydrogen peroxide and 0.04% o-phenylenediamine hydrochloride.
(§3) Buffers and water without additives were filtered through millipore filters and kept for 1 week. BSA, antibodies, Tween™ 20 and horse radish peroxidase conjugates were added to these buffers and water just prior to use. Urine samples were usually collected 4 hours after drinking a cup of coffee (instant or brewed with approximately 100 mg of caffeine per cup) and stored at −80° C. They were diluted 10 times with sodium phosphate buffer (620 mosm, pH 7.50) and were subsequently diluted with water to give concentrations of AAMU and 1× no higher than 3×10^−6 M in the ELISA. All the pipettings were done with an eight-channel pipette, except those of the antibody and sample solutions. Starting with the last well, 100 μL of a carbonate buffer (100 mM, pH 9.6) containing 2.5 μg mL-^1 antibodies was pipetted. After 90 min. at room temperature, the wells were washed three times with 100 μL of TPB: isotonic sodium phosphate buffer (310 mosm, pH 7.50) containing 0.05% Tween™ 20.
(§4) After the initial wash, unoccupied sites were blocked by incubation for 90 min. at room temperature with 100 μL TBP containing 3% BSA. The wells were washed four times with 100 μL TPB. […] The microplate was gently shaken with an orbital shaker at room temperature for 3-4 hours. The wells were washed three times with 100 μL with TPB containing 1% BSA and three times with water containing 0.05% Tween™ 20. To the washed plate was added 150 μL of a substrate buffer composed of citric acid (25 mM) and sodium phosphate dibasic buffer (50 mM, pH 5.0) containing 0.06% hydrogen peroxide and 0.04% o-phenylenediamine hydrochloride. After 20 min. at room temperature with shaking, the reaction was stopped with 50 μL of 2.5 N HCl.
(§5) The cross reactivities of AAMU-Ab and 1×-Ab were tested using a wide variety of caffeine metabolites and structural analogs (Table 2 below). AAMU-Ab appeared highly specific for binding AAMU, while 1×-Ab appeared relatively specific for binding 1×.

1X-Ab = assay: Competitive antigen ELISA, cross-reactivity of 1X-Ab; format: binding, rabbit; details: 0 = absence of inhibition or inhibition no higher than 40% at 5 × 10^−3 M
Protocol: as §1, §2, §3, §4, §5

[1] = cited from earlier work; for metabolized fraction of the absorbed anesthetic: in vivo
cytochrome P-450 = details: microsomal preparations; cited from earlier work
[2] = test system: Chinese hamster lung fibroblast; details: cited from earlier work
[3] = rat, 10 ppm, with nitrous oxide; cited from earlier work
[4] = test system: Chinese hamster ovary cells; details: cited from earlier work
human leukocyte culture = details: cited from earlier work
[5] = test system: spermatogonia cells and bone marrow cells; details: rat, one-year exposure, 1 and 10 ppm, with nitrous oxide; cited from earlier work
[6] = subanesthetic and/or anesthetic concentrations; cited from earlier work
[7] = 37° C.; cited from earlier work
[8] = mouse, inhalation, 0.05%, 18 months; cited from earlier work
[9] = humans; cited from earlier work
[10] = cited from earlier work

SMILES	% Cross-Reaction AAMU-Ab (AAMU-Ab)	% Cross-Reaction 1X-Ab (1X-Ab) [%]	other results
Nc1nc2nc[nH]c2c(=O)[nH]1 [Guanine]	0%	0	
Cc1nc2[nH]c(=O)[nH]c(=O)c2[nH]1 [8-Methyl Xanthine]	0%	0	
Cn1c(=O)c2c(ncn2C)n(C)c1=O [1,3,7-Trimethyl Xanthine (Caffeine), 1,3,7-Trimethyl Xanthine]	0%	0	
Cn1c(=O)[nH]c2[nH]c(=O)n(C)c2c1=O [1,7-Dimethyluric acid]	0%	0	
O=c1[nH]cnc2nc[nH]c12 [Hypoxanthine]	0%	0	
Cn1c(=O)[nH]c(=O)c2[nH]cnc21 [3-Methyl Xanthine]	0%	0	
CC(=O)Nc1c(N)[nH]c(=O)[nH]c1=O [5-Acetamino-6-amino-uracil]	0.6%	0	
O=c1[nH]c(=O)c2[nH]cnc2[nH]1 [Xanthine]	0^a %	0	
FC(F)OC(F)(F)C(F)Cl (stereo not drawn) [Enflurane]			metabolized fraction of the absorbed anesthetic [1]: 2-8%; concentration that destroys cytochrome P-450 (cytochrome P-450): 13300 µM
Cn1c(=O)[nH]c2[nH]c(=O)[nH]c2c1=O [1-Methyluric acid]	0%	11	
FC(F)OC(Cl)C(F)(F)F (stereo not drawn) [isoflurane]			metabolism, fraction of the absorbed anesthetic ([1]; estimated): approximately 0.2%
FC(F)(F)C(Cl)Br (racemic) [Halothane, 2-bromo-2-chloro-1,1,1-trifluoro-ethane]			mutagenesis, Chinese hamster lung fibroblast assay [2]: Negative; fertility [3]: decreased fertility; mutagenesis, sister chromatid exchange [4]: Negative; mutagenesis, human leukocyte culture assay (human leukocyte culture): Negative; mutagenesis, chromosomal damage [5]: chromosomal damage to spermatogonia cells and bone marrow cells; metabolized fraction of the absorbed anesthetic [1]: 25-45%; teratogenic effects [6]: teratogenic, embryotoxic, and fetotoxic; blood/gas coefficient [7]: 2.5; olive oil/water coefficient [7]: 220; carcinogenicity [8]: no evidence of anesthetic-related carcinogenicity; concentration that destroys cytochrome P-450 (cytochrome P-450): 18800 µM; minimum alveolar concentration (MAC) [9]: 0.64%
CC(=O)Nc1c(N)n(C)c(=O)n(C)c1=O [5-Acetamino-6-amino-1,3-dimethyluracil]	0%	0	
Nc1ccc(S(=O)(=O)c2ccc(N)cc2)cc1 [dapsone]			adverse reactions ([10]; fast acetylators): 17%; adverse reactions ([10]; slow acetylators): 46%
O=c1cc[nH]c(=O)[nH]1 [Uracil]	0%	0	
COC(F)(F)C(Cl)Cl [methoxyflurane]			concentration that destroys cytochrome P-450 (cytochrome P-450): 5800 µM
CC(=O)Nc1c(N)n(C)c(=O)[nH]c1=O [5-Acetamino-6-amino-1-methyluracil]	100%	0	
Cn1cnc2c1c(=O)[nH]c(=O)n2C [3,7-Dimethyl Xanthine (Theobromine), 3,7-Dimethyl Xanthine]	0%	0	
Cn1c(=O)[nH]c2ncn(C)c2c1=O [1,7-Dimethyl Xanthine (Paraxanthine), 1,7-Dimethyl Xanthine]	0%	0.5	
O=c1[nH]c(=O)c2[nH]c(=O)[nH]c2[nH]1 [Uric acid]	0%	0	
Cn1c(=O)c2[nH]cnc2n(C)c1=O [1,3-Dimethyl Xanthine (Theophylline), 1,3-Dimethyl Xanthine]	0%	0.2	
Cn1cnc2[nH]c(=O)[nH]c(=O)c21 [7-Methyl Xanthine]	0%	0	
Cn1c(=O)[nH]c2nc[nH]c2c1=O [1-Methyl Xanthine (1X), 1-Methyl Xanthine]	0%	100	
